Measurements published in article PMC4922569, “Antifibrotic Effects of the Dual CCR2/CCR5 Antagonist Cenicriviroc in Animal Models of Liver and Kidney Fibrosis” (PLoS ONE, 2016).

Legend:
[1] = system: monocyte/macrophage recruitment; test: Thioglycollate (TG)-induced mouse model of peritonitis: peritoneal lavage monocyte/macrophage counts; assay type: in vivo; details: dexamethasone 1 mg/kg QD PO Days 1-5; 48 h post-TG
Method: A murine thioglycollate (TG)-induced model of peritonitis, where acute inflammation induced by intraperitoneal (IP) injection of TG results in a rapid increase in monocyte/macrophage migration into the peritoneal cavity, was employed to assess the effects of CVC on cell recruitment in vivo. The protocol was approved by the IACUC of Charles River Laboratories Preclinical Services, Montreal (PCS-MTL). The care and use of animals was conducted in accordance with the guidelines of the US National Research Council and the Canadian Council on Animal Care.
Male C57BL/6 mice (n = 44; 8–10 weeks of age; Charles River Laboratories, Canada) were allocated to receive treatments via oral gavage (PO) on Days 1–5 in the following groups: non-disease control, vehicle control twice daily (BID), CVC 5 mg/kg/day (CVC5) BID, CVC 20 mg/kg/day (CVC20) BID, CVC 100 mg/kg/day (CVC100) BID, CVC20 QD, and positive control dexamethasone (corticosteroid known to reduce inflammation in a variety of animal models) 1 mg/kg QD (S1 Table). On Day 4, peritonitis was induced via IP injection of TG 3.85% (1 mL/animal) 2 hours post-dose in all groups except non-disease controls. Study endpoints included: peritoneal lavage cell counts and pharmacokinetic (PK) evaluation. Animals were sacrificed 48 hours post-TG injection by isoflurane inhalation, and peritoneal lavage and blood samples (0.7 mL) were collected. Differential cell counts were assessed in peritoneal lavage samples using an Advia® Hematology System (Siemens Healthcare Diagnostics, USA) with multispecies software and an analysis software designed for mouse peritoneal fluid on Advia® 120 (LabThruPut, USA). A 0.3 mL aliquot of the blood sample was processed to plasma for PK analysis.
(§1) In the peritonitis mouse model, one-way analysis of variance with post-hoc Dunnett’s test was performed, using GraphPad Prism® (GraphPad Software, Inc., USA), on differential cell counts obtained from lavage in treatment groups versus the vehicle-control group. For the ex vivo migration of mouse monocytes, statistical significance was determined by a Student’s t test.

[2] = system: CCL2-mediated chemotaxis of activated murine macrophages (F4/80+/CD11b+); test: Ex vivo CCL2-induced chemotaxis of activated mouse macrophages (Transwell); assay type: cell-based; details: CCL2-stimulated cells (1 nM CCL2), no CVC, 2 hours
Method: Mouse monocyte migration in response to CVC treatment was assessed ex vivo in triplicate. TG was injected intraperitoneally into male C57BL/6 mice (n = 3; 8–10 weeks of age; Jackson Laboratory, USA) and activated macrophages were collected 48 hours later by peritoneal lavage. Chemotaxis was assayed using a Transwell® Chamber (Costar, USA) with a 5 μm-pore size polycarbonate filter, as previously described. Briefly, cells were incubated for 2 hours in the presence of 1 nM CCL2 and/or 1 μM CVC (dissolved in dimethyl sulfoxide with 0.5% acetic acid and diluted 1:1000 with serum-free Roswell Park Memorial Institute-1640 medium and 0.5% bovine serum albumin). Cells were harvested from the lower compartment and analyzed by flow cytometry to enumerate F4/80^+CD11b^+ macrophages using a 3-laser BD FACSCanto™ (BD Biosciences, Canada). Results were analyzed using FlowJo software (Tree Star Inc., USA).
as §1

Compound | Decrease in peritoneal lavage monocyte/macrophage counts compared to vehicle control [1] | Average fold change in migrating cells (±SD) compared to untreated and unstimulated cells [2]
C[C@@H]1C[C@H]2[C@@H]3CCC4=CC(=O)C=C[C@]4(C)[C@@]3(F)[C@@H](O)C[C@]2(C)[C@@]1(O)C(=O)CO [dexamethasone, reference compound] | 38.1% | 
CCL2: C-C chemokine ligand type 2, chemotaxis stimulus for activated macrophages [reference compound] |  | 4.6±0.9 fold
